Measurements from ChEMBL document CHEMBL1156351, “A new isoquinoline alkaloid from the marine sponge Haliclona species” (J Nat Prod, 2001).
In brackets after ≈: the same amount, converted by molar mass. Activity calls are given as the source filed them. The calls are words filed in the database; no cut-off is given here.

Legend:
Assay type in all cases: functional, cell-based
LOX = experiment: Cytotoxicity against human LOX cells at 50 ug/mL after 2 days by XTT assay
OVCAR-3 [1] = experiment: Cytotoxicity against human OVCAR-3 cells at 50 ug/mL after 2 days by XTT assay
OVCAR-3 [2] = experiment: Cytotoxicity against human OVCAR-3 cells after 2 days by XTT assay; conditions: OVCAR-3, 48 h
[3] = Cytotoxicity against human LOX cells after 2 days by XTT assay; conditions: 48 h

SMILES | Activity (LOX) | Activity (OVCAR-3 [1]) | IC50 (OVCAR-3 [2]) | IC50 [3]
COc1cc2c(CO)nccc2cc1O | inactive | inactive |  | 
COC1=C(C)C(=O)c2cc(=O)n(C)c(C)c2C1=O [MIMOSAMYCIN] |  |  | 10 mg/L (≈ 40.4 µM) | 10 mg/L (≈ 40.4 µM)
